Where two headings read alike, the source gives them in different places.
What was measured:
[1] = target: T1, FFA3/GPR41 (Homo sapiens, UniProt O14843); experiment: forskolin-stimulated cAMP accumulation assay, Flp-In-293 cells stably expressing FFA3/GPR41; type: cell-based; conditions: for inhibition at 50 µM / Emax: Flp-In-293; for inhibition at 50 µM: 50 µM compound, NA = not active up to 50 µM; for Emax / EC50: mean ± SD; for Emax: read-out: FFA3/GPR41 Emax, maximal inhibition of forskolin-stimulated cAMP (converted); for EC50: inhibition of forskolin-stimulated cAMP, absence of propionate, read-out: FFA3/GPR41 EC50; for activity towards FFA3/GPR41 (in words): cAMP assay
T1 construct: host or cells: Flp-In-293
T1 sequence (O14843 1-346): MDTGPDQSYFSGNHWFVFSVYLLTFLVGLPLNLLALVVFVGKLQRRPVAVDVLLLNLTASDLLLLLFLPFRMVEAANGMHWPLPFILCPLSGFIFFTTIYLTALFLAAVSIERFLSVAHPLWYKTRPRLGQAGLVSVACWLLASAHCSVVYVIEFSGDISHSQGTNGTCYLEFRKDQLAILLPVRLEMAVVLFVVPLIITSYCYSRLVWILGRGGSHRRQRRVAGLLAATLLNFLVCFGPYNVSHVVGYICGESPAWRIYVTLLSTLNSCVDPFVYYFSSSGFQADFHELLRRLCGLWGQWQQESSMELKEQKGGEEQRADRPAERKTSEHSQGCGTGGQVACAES
Procedure: (§1) All of our synthesized compounds were evaluated in forskolin-stimulated cAMP accumulation assay using Flp-In-293 cells stably expressing human FFA2/GPR43, FFA3/GPR41 or HCA2/GPR109A receptors (Table 1, Table 2 and Table 3; Figure 2).
(§2) Flp-In-293 cells (Invitrogen) were used for the generation of stable FFA3/GPR41 and FFA2/GRP43 cell lines using Flp-In System (Invitrogen). Flp-In-293 cells were cultured in Dulbecco’s modified Eagle medium (DMEM) supplemented with 10% fetal bovine serum (FBS), penicillin (100 U/mL), streptomycin (100 µg/mL), and zeocin (100 µg/mL). The cells were co-transfected with pOG44 (Invitrogen) and pcDNA5/FRT-FFA3 or pcDNA5/FRT-FFA2 using TurboFect (Thermo Fisher Scientific), and stable cell lines were generated according to the manufacturer’s protocol (Invitrogen). After transfection, the cells were cultured under selection pressure due to the presence of hygromycin B (100 µg/mL) in DMEM supplemented with 10% FBS, penicillin, and streptomycin.
(§3) For cAMP assay, the cells were distributed into a 384-well white microplate at a density of 12,000 cells per well and stimulated with the indicated compounds in the presence of 3 μM forskolin for 30 min. […] The cells and the compounds were diluted in 1X phosphate-buffered saline (PBS) supplemented with 0.5 mM of 3-isobutyl-1-methylxanthine. The intracellular cAMP levels were measured using a Lance cAMP kit according to the manufacturer’s instructions. The plates were read on a PerkinElmer Victor 3V multilabel plate reader. The cAMP was quantitated in each sample by comparison to a calibration curve of known cAMP quantities provided in the kit.

[2] = target: T2, FFA2/GPR43 (Homo sapiens, UniProt O15552); experiment: forskolin-stimulated cAMP accumulation assay, Flp-In-293 cells stably expressing FFA2/GPR43; type: cell-based; conditions: for inhibition at 50 µM / Emax: Flp-In-293; for inhibition at 50 µM: 50 µM compound, NA = not active up to 50 µM; for activity towards FFA2/GPR43 (in words): cAMP assay; for Emax / EC50: mean ± SD; for Emax: read-out: FFA2/GPR43 Emax, maximal inhibition of forskolin-stimulated cAMP (converted); for EC50: inhibition of forskolin-stimulated cAMP
T2 construct: host or cells: Flp-In-293
T2 sequence (O15552 1-330): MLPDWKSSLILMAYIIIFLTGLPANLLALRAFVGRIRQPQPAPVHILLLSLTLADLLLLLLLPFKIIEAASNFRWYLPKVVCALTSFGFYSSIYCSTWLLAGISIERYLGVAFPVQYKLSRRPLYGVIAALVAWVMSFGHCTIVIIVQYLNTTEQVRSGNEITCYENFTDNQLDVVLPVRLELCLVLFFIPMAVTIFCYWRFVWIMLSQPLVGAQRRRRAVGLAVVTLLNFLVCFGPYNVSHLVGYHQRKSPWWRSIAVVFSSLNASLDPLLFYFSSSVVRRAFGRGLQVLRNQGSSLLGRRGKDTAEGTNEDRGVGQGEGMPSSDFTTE
Procedure: as §1, §2, §3

[3] = target: T3, HCA2/GPR109A (Homo sapiens, UniProt Q8TDS4); experiment: forskolin-stimulated cAMP accumulation assay, Flp-In-293 cells stably expressing HCA2/GPR109A; type: cell-based; conditions: for activity towards HCA2/GPR109A (in words): cAMP assay; for inhibition at 50 µM: 50 µM compound, NA = not active up to 50 µM
T3 construct: expressed in transfected cells; host or cells: Flp-In-293
T3 sequence (Q8TDS4 whole entry): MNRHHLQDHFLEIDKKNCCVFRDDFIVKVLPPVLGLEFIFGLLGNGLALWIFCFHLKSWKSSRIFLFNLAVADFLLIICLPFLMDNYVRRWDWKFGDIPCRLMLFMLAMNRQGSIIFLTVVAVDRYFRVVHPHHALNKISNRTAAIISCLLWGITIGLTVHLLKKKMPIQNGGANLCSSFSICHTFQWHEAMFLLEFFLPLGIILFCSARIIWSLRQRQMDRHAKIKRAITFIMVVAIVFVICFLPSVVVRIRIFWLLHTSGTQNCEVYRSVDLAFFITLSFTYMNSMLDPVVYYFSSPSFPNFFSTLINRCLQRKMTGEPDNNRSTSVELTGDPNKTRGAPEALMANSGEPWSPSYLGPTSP
Procedure: as §1
Flp-In-293 cells stably expressing human HCA2/GPR109A receptor (laboratory collection) were grown in DMEM medium supplemented with 10% FBS, penicillin, streptomycin, and hygromycin B (100 µg/mL). All cells were cultured at 37 °C in a humidified incubator containing 5% CO2.
as §3

[4] = cyclic voltammetry, electrooxidation potential; type: physicochemical; conditions: vs. Ag/Ag+; acetonitrile, glassy carbon electrode
Procedure: Cyclic voltammetry experiments were carried out using a PARSTAT 2273 electrochemical system. A stationary glassy carbon disk electrode (d = 0.8 mm) served as the working electrode, while the counter electrode was a Pt wire. The oxidation potentials were measured relative to an Ag/Ag^+ reference electrode. Acetonitrile was dried over P2O5 and distilled; the distillate was stored over CaH2 and redistilled immediately prior to use. Recrystallized tetrabutylammonium tetrafluoroborate (TBATFB) was used as a supporting electrolyte at 0.1 M concentration.

[5] = HCA2, mean ± SD, read-out: HCA2/GPR109A Emax, maximal inhibition of forskolin-stimulated cAMP (converted)
[6] = inhibition of forskolin-stimulated cAMP, mean ± SD, read-out: HCA2/GPR109A EC50

Row | inhibition at 50 µM [1] [%] | Emax [1] [%] | EC50 [1] [nM] | inhibition at 50 µM [2] [%] | Emax [3, 5] [%] | EC50 [3, 6] [nM] | Compound | further results
1 | 45 ± 9 | – | – | – | – | – | CC1=C(C(=O)Nc2ccc(Cl)cc2)C(c2cccs2)C2=C(CCCC2=O)N1 (centres unmarked) [1-5, N-(4-Chlorophenyl)-2-methyl-5-oxo-4-(thiophen-2-yl)-1,4,5,6,7,8-hexahydroquinoline-3-carboxamide] | –
2 | – | 82 | 1400 ± 170 | – | – | – | CC1=C(C(=O)Nc2ccc(Cl)cc2Cl)C(c2cccs2)C2=C(CCCC2=O)N1 (centres unmarked) [1-6, N-(2,4-Dichlorophenyl)-2-methyl-5-oxo-4-(thiophen-2-yl)-1,4,5,6,7,8-hexahydroquinoline-3-carboxamide] | –
3 | – | – | – | 49 ± 8 | – | – | CC1=C(C(=O)Nc2ccccn2)C(c2cccs2)C2=C(CCCC2=O)N1 (centres unmarked) [1-7, 2-Methyl-5-oxo-N-(pyridin-2-yl)-4-(thiophen-2-yl)-1,4,5,6,7,8-hexahydroquinoline-3-carboxamide] | activity towards FFA3/GPR41 (in words) [1]: lost; activity towards FFA2/GPR43 (in words) [2]: showed activity
4 | 28 ± 2 | – | – | – | – | – | CC1=C(C(=O)N2CCOCC2)C(c2cccs2)C2=C(CCCC2=O)N1 (centres unmarked) [1-8, 2-Methyl-3-(morpholine-4-carbonyl)-4-(thiophen-2-yl)-4,6,7,8-tetrahydro-1H-quinolin-5-one] | activity towards FFA2/GPR43 (in words) [2]: lacked activity; activity towards HCA2/GPR109A (in words) [3]: lacked activity
5 | – | 91 | 1900 ± 400 | 40 ± 2 | – | – | CCOC(=O)COC(=O)C1=C(C)NC2=C(C(=O)CCC2)C1c1cccs1 (centres unmarked) [1-9] | El.ox. pot. (first, lower potential) [4]: 1.18 V
6 | 49 ± 15 | – | – | 31 ± 4 | – | – | CCOC(=O)C(OC(=O)C1=C(C)NC2=C(C(=O)CCC2)C1c1cccs1)c1ccccc1 (centres unmarked) [1-10, (2-Ethoxy-2-oxo-1-phenylethyl)2-methyl-5-oxo-4-(2-thienyl)-4,6,7,8-tetrahydro-1H-quinoline-3-carboxylate] | El.ox. pot. (first, lower potential) [4]: 1.18 V; inhibition at 50 µM ([3]; HCA2): 60 ± 5%
7 | 51 ± 6 | – | – | 55 ± 6 | – | – | CCCNCC1=C(C(=O)OCC)C(c2ccc(-c3ccccc3)cc2)C2=C(CC(C)(C)CC2=O)N1 (centres unmarked) [1-11] | inhibition at 50 µM ([3]; HCA2): 52 ± 5%
8 | 16 ± 8 | – | – | 21 ± 4 | – | – | CCN1CC2=C(C1=O)C(c1ccc(-c3ccccc3)cc1)C1=C(CC(C)(C)CC1=O)N2 (centres unmarked) [1-12] | activity towards FFA3/GPR41 (in words) [1]: low activity; activity towards FFA2/GPR43 (in words) [2]: low activity; inhibition at 50 µM ([3]; HCA2): 16 ± 4%; activity towards HCA2/GPR109A (in words) [3]: low activity
9 | 30 ± 9 | – | – | 32 ± 7 | – | – | CC(=O)OCCN1C2=C(C(=O)CC(C)(C)C2)C(c2ccccc2)C2=C1CC(C)(C)CC2=O [1-13] | inhibition at 50 µM ([3]; HCA2): 26 ± 8%
10 | – | – | – | – | – | – | CCOC(=O)C1=C(C(=O)O)NC2=C(C(=O)CC(C)(C)C2)C1c1ccc(-c2ccccc2)cc1 (centres unmarked) [1-14] | activity towards FFA3/GPR41 (in words) [1]: completely lacked activity; activity towards FFA2/GPR43 (in words) [2]: completely lacked activity; activity towards HCA2/GPR109A (in words) [3]: completely lacked activity
11 | – | 89 | 4800 ± 360 | – | 96 | 7100 ± 1310 | Cc1cc(=O)oc2[nH]c(=S)[nH]c(=O)c12 [2-1] | Emax [2]: 87%; EC50 [2]: 19000 ± 6800 nM
12 | 38 ± 2 | – | – | 29 ± 3 | 86 | 870 ± 110 | CCCc1cc(=O)oc2[nH]c(=S)[nH]c(=O)c12 [2-3, 5-Propyl-2-thioxo-2,3-dihydro-1H-pyrano[2,3-d]pyrimidine-4,7-dionee] | –
13 | – | 95 | 190 ± 30 | – | 97 | 550 ± 40 | CCCCc1cc(=O)oc2[nH]c(=S)[nH]c(=O)c12 [2-4, 5-Butyl-2-thioxo-2,3-dihydro-1H-pyrano[2,3-d]pyrimidine-4,7-dione] | Emax [2]: 93%; EC50 [2]: 740 ± 80 nM
14 | 28 ± 4 | – | – | – | 93 | 51 ± 7 | CCCCc1cc(=O)oc2[nH]c(=O)[nH]c(=O)c12 [2-5] | El.ox. pot. (single value) [4]: 1.94 V
15 | – | 89 | 340 ± 50 | – | 94 | 350 ± 20 | O=c1cc(CCCCCl)c2c(=O)[nH]c(=S)[nH]c2o1 [2-6, 5-(4-Chlorobutyl)-2-thioxo-2,3-dihydro-1H-pyrano[2,3-d]pyrimidine-4,7-dione] | Emax [2]: 83%; EC50 [2]: 2500 ± 400 nM
16 | – | 95 | 1600 ± 500 | 65 ± 1 | 93 | 75000 ± 11000 | CCCCc1cc(=O)oc2[nH]c(SCC(=O)OCC)nc(=O)c12 [3-1, Ethyl 5-butyl-4,7-dioxo-1,7-dihydro-4H-(pyrano[2,3-d]pyrimidin-2-ylsulfanyl)acetate] | El.ox. pot. (single value) [4]: 1.97 V
17 | – | 91 | 1700 ± 200 | 64 ± 2 | 89 | 43000 ± 8000 | CCOC(=O)CSc1nc(=O)c2c(CCCCCl)cc(=O)oc2[nH]1 [3-2] | –
18 | 20 ± 4 | – | – | 42 ± 2 | 87 | 62000 ± 10000 | NC(=O)CSc1nc(=O)c2c(CCCCCl)cc(=O)oc2[nH]1 [3-5, 2-[5-(4-Chlorobutyl)-4,7-dioxo-1,7-dihydro-4H-pyrano[2,3-d]pyrimidin-2-ylsulfanyl]-acetamide] | El.ox. pot. (single value) [4]: 1.93 V
19 | – | 87 | 4600 ± 600 | 52 ± 10 | – | – | O=C(CSc1nc(=O)c2c(CCCCCl)cc(=O)oc2[nH]1)Nc1ccccc1C(=O)O [3-7, 2-2-[5-(4-Chlorobutyl)-4,7-dioxo-1,7-dihydro-4H-pyrano[2,3-d]pyrimidin-2-ylsulfanyl]-acetamino-benzoic acid] | inhibition at 50 µM ([3]; HCA2): 30 ± 6%

Row | Compound | inhibition at 50 µM [1] [%] | Emax [1] [%] | EC50 [1] [nM] | inhibition at 50 µM [2] [%] | Emax [3, 5] [%] | EC50 [3, 6] [nM] | further results
20 | CCc1cc(=O)oc2[nH]c(=S)[nH]c(=O)c12 [2-2] | – | – | 370 ± 80 | – | – | – | Emax [2]: 91%; EC50 [2]: 920 ± 40 nM; EC50 [3]: 490 ± 60 nM; Emax ([3]; HCA2, read-out: HCA2/GPR109A Emax, maximal inhibition of forskolin-stimulated cAMP): 99%

Source: paper PMC8537386, “The Specificity and Broad Multitarget Properties of Ligands for the Free Fatty Acid Receptors FFA3/GPR41 and FFA2/GPR43 and the Related Hydroxycarboxylic Acid Receptor HCA2/GPR109A” (Pharmaceuticals, 2021)
